{
  "source": "PubChem BioAssay AID1963959",
  "about": "(Molecular Pharmacology Branch, DTP, NCI, 2024)",
  "tested_on": "T-47D spheroids with HUVEC/MSC, viability",
  "assay": "Anticancer human tumor T-47D cell line growth inhibition [PI3K];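 further: spheroids exposed to agents for seven days before reading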;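 on viability, T/C: percent of DMSO vehicle control luminescence so 100% = untreated growth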",
  "conditions": "for IC50: curve of first compound; for viability, T/C: stronger effect = lower value",
  "source_text": "Combinatorial screen of targeted agents with the PI3K inhibitors inavolisib, alpelisib, duvelisib, and copanlisib in multi-cell type tumor spheroids\nA high-throughput screen of multi-cell type tumor spheroids was designed to identify active combinations of targeted small molecules and PI3K pathway inhibitors. Complex spheroids include a stromal component modeled by human endothelial cells (HUVEC) and fibroblasts modeled by human mesenchymal stem cells (MSCs). The concentration ranges selected for each drug and investigational agent were based upon clinically achievable concentrations if the clinical Cmax of the agent was known.\nCompounds. The drugs and investigational agents: inavolisib (NSC800729), alpelisib (NSC765974), duvelisib (NSC772469), copanlisib (NSC816437), ipatasertib (NSC767898), afuresertib (NSC778305), talazoparib (NSC767125), sapanisertib (NSC764658), selumetinib (NSC741078), tovorafenib (DAY101, NSC766906), vemurafenib (NSC761431), ravoxertinib (NSC781343), sotorasib (NSC818433), MRTX1133 (NSC 836407), abemaciclib (NSC 768073), palbociclib (NSC758247), venetoclax (NSC 766270), SY5609 (NSC837396), enzalutamide (NSC755605), and darolutamide (NSC825331), were obtained from the National Cancer Institute (NCI) Developmental Therapeutics Program Chemical Repository. The FDA-approved anticancer drug set is available from the NCI Developmental Therapeutics Program. […] The stock solutions were prepared in dimethyl sulfoxide (DMSO, Sigma-Aldrich, St. Louis, MO, cat. D2650) at 800-fold the tested concentration and stored at -70 degrees C prior to their use. All drugs and investigational agents were tested over a range starting from a high concentration at or near the clinical Cmax and decreasing in half-log increments. If the clinical Cmax for an agent had not been determined, the highest concentration tested was 10 microM.\nCell Culture. All cells were maintained in an incubator at 37 degrees C and 5% CO2 with 95% humidity. The PDC lines were cultured according to standard operating procedures established by the NCI PDMR (https://pdmr.cancer.gov/sops/default.htm). All PDCs were thawed and cultured in Matrigel-coated flasks prepared with a working solution of 1X Ham's F-12 nutrient mix, without supplementation (Invitrogen, Waltham, MA, cat. 11765054), 100 U/mL penicillin-streptomycin (Invitrogen, cat. 15140122), and 2.5% Matrigel (Corning Inc., Corning, NY, cat. 354248) for the first three passages. The 354836-022-R-J1-PDC, 475296-252-R-J1-PDC, and 997726-040-R-J2-PDC lines were cultured in 6A media, which includes advanced DMEM/F-12 (Thermo Fisher Scientific, cat. 12634028), 10 mM HEPES (Thermo Fisher Scientific, cat. 15630080), 1X GlutaMAX supplement (Thermo Fisher Scientific, cat. 35050061), 0.1 mg/mL primocin (InvivoGen, San Diego, CA, cat. ant-pm-2), 10% defined fetal bovine serum, heat inactivated (HyClone Laboratories Inc., Logan, UT, cat. SH30070.03HI), 50% L-WRN conditioned media (ATCC, cat. CRL-3276), 1.25 mM N-Acetyl-L-cysteine (Sigma-Aldrich, cat. A9165), 10 mM nicotinamide (Sigma-Aldrich, cat. N0636), 1X B-27 supplement (Thermo Fisher Scientific, cat. 17504044), 1X N-2 supplement (Thermo Fisher Scientific, cat. 17502048), and 10 microM Y-27632 dihydrochloride (Tocris Bioscience, Bristol, United Kingdom, cat. 1254). The 624824-186-R-J2-PDC line was cultured in 6C/Colon 1B media, which includes all 6A media components plus 50 ng/mL human EGF recombinant protein (Thermo Fisher Scientific, cat. PHG0311). […]",
  "data": [
    {"compound": "C=CC(=O)N1CCN(c2nc(=O)n(-c3c(C)ccnc3C(C)C)c3nc(-c4c(O)cccc4F)c(F)cc23)C(C)C1", "note": "(configuration not stated) + COc1c(OCCCN2CCOCC2)ccc2c3n(c(=NC(=O)c4cnc(N)nc4)nc12)CCN3", "values": [
      {"measurement": "IC50", "setting": "second compound 0.00316 µM", "result": "> 10", "unit": "µM"},
      {"measurement": "IC50", "setting": "second compound 0.01 µM", "result": "> 10", "unit": "µM"},
      {"measurement": "IC50", "setting": "second compound 0.0316 µM", "result": "> 10", "unit": "µM"},
      {"measurement": "IC50", "setting": "second compound 0.1 µM", "result": "< 0.0316", "unit": "µM"},
      {"measurement": "IC50", "setting": "second compound 0.316 µM", "result": "< 0.0316", "unit": "µM"},
      {"measurement": "IC50", "setting": "second compound 1 µM", "result": "< 0.0316", "unit": "µM"},
      {"measurement": "viability, T/C", "setting": "second compound 0.00316 µM, first compound 0.0316 µM", "result": 100, "unit": "%"},
      {"measurement": "viability, T/C", "setting": "second compound 0.00316 µM, first compound 0.1 µM", "result": 124, "unit": "%"},
      {"measurement": "viability, T/C", "setting": "second compound 0.00316 µM, first compound 0.316 µM", "result": 106, "unit": "%"},
      {"measurement": "viability, T/C", "setting": "second compound 0.00316 µM, first compound 1 µM", "result": 108, "unit": "%"},
      {"measurement": "viability, T/C", "setting": "second compound 0.00316 µM, first compound 3.16 µM", "result": 101, "unit": "%"},
      {"measurement": "viability, T/C", "setting": "second compound 0.00316 µM, first compound 10 µM", "result": 113, "unit": "%"},
      {"measurement": "viability, T/C", "setting": "second compound 0.01 µM, first compound 0.0316 µM", "result": 101, "unit": "%"},
      {"measurement": "viability, T/C", "setting": "second compound 0.01 µM, first compound 0.1 µM", "result": 91.6, "unit": "%"},
      {"measurement": "viability, T/C", "setting": "second compound 0.01 µM, first compound 0.316 µM", "result": 96.1, "unit": "%"},
      {"measurement": "viability, T/C", "setting": "second compound 0.01 µM, first compound 1 µM", "result": 91, "unit": "%"},
      {"measurement": "viability, T/C", "setting": "second compound 0.01 µM, first compound 3.16 µM", "result": 138, "unit": "%"},
      {"measurement": "viability, T/C", "setting": "second compound 0.01 µM, first compound 10 µM", "result": 104, "unit": "%"},
      {"measurement": "viability, T/C", "setting": "second compound 0.0316 µM, first compound 0.0316 µM", "result": 84.5, "unit": "%"},
      {"measurement": "viability, T/C", "setting": "second compound 0.0316 µM, first compound 0.1 µM", "result": 67.6, "unit": "%"},
      {"measurement": "viability, T/C", "setting": "second compound 0.0316 µM, first compound 0.316 µM", "result": 74.6, "unit": "%"},
      {"measurement": "viability, T/C", "setting": "second compound 0.0316 µM, first compound 1 µM", "result": 109, "unit": "%"},
      {"measurement": "viability, T/C", "setting": "second compound 0.0316 µM, first compound 3.16 µM", "result": 95.6, "unit": "%"},
      {"measurement": "viability, T/C", "setting": "second compound 0.0316 µM, first compound 10 µM", "result": 90.6, "unit": "%"},
      {"measurement": "viability, T/C", "setting": "second compound 0.1 µM, first compound 0.0316 µM", "result": 46.2, "unit": "%"},
      {"measurement": "viability, T/C", "setting": "second compound 0.1 µM, first compound 0.1 µM", "result": 51, "unit": "%"},
      {"measurement": "viability, T/C", "setting": "second compound 0.1 µM, first compound 0.316 µM", "result": 41.1, "unit": "%"},
      {"measurement": "viability, T/C", "setting": "second compound 0.1 µM, first compound 1 µM", "result": 45.1, "unit": "%"},
      {"measurement": "viability, T/C", "setting": "second compound 0.1 µM, first compound 3.16 µM", "result": 48.3, "unit": "%"},
      {"measurement": "viability, T/C", "setting": "second compound 0.1 µM, first compound 10 µM", "result": 53.1, "unit": "%"},
      {"measurement": "viability, T/C", "setting": "second compound 0.316 µM, first compound 0.0316 µM", "result": 21.3, "unit": "%"},
      {"measurement": "viability, T/C", "setting": "second compound 0.316 µM, first compound 0.1 µM", "result": 18.4, "unit": "%"},
      {"measurement": "viability, T/C", "setting": "second compound 0.316 µM, first compound 0.316 µM", "result": 18.2, "unit": "%"},
      {"measurement": "viability, T/C", "setting": "second compound 0.316 µM, first compound 1 µM", "result": 21, "unit": "%"},
      {"measurement": "viability, T/C", "setting": "second compound 0.316 µM, first compound 3.16 µM", "result": 20.9, "unit": "%"},
      {"measurement": "viability, T/C", "setting": "second compound 0.316 µM, first compound 10 µM", "result": 35, "unit": "%"},
      {"measurement": "viability, T/C", "setting": "second compound 1 µM, first compound 0.0316 µM", "result": 6.05, "unit": "%"},
      {"measurement": "viability, T/C", "setting": "second compound 1 µM, first compound 0.1 µM", "result": 6.58, "unit": "%"},
      {"measurement": "viability, T/C", "setting": "second compound 1 µM, first compound 0.316 µM", "result": 5.84, "unit": "%"},
      {"measurement": "viability, T/C", "setting": "second compound 1 µM, first compound 1 µM", "result": 9.25, "unit": "%"},
      {"measurement": "viability, T/C", "setting": "second compound 1 µM, first compound 3.16 µM", "result": 11.6, "unit": "%"},
      {"measurement": "viability, T/C", "setting": "second compound 1 µM, first compound 10 µM", "result": 19.2, "unit": "%"}
    ]}
  ]
}
